Where two headings read alike, the source gives them in different places.
Columns and labels:
BCL2 = conditions: 10 μM
Method: (§1) Total protein lysates were obtained from cells by lysing the samples in cold RIPA buffer (50 mM Tris-HCl, 150 mM NaCl, 1 mM EDTA, 1% Triton X-100 and 0.1% SDS), in the presence of PMSF, sodium orthovanadate, protease and phosphatase inhibitors. After being re-suspended in RIPA cells were briefly sonicated. Protein concentration was evaluated by a BCA assay (Pierce). For immunoprecipitation, TRAF6 or IRAK1 antibodies (2 μg) were added to cell lysates (10 mg) for 3 h at 4° C. and captured by the addition of Protein A/G Plus beads (sc-2003; Santa Cruz) as described before (Starczynowski et al., 2011). The immune complexes were washed with lysis buffer followed by the addition of SDS sample buffer. The bound proteins were separated by SDS-polyacrylamide gel electrophoresis, transferred to nitrocellulose membranes, and analyzed by immunoblotting. Western blot analysis was performed with the following antibodies: TRAF6 (sc-7221; Santa Cruz), IRAK1 (sc-7883; Santa Cruz), ubiquitin (sc-8017; Santa Cruz), IKKβ (2370; Cell Signaling Technology), GAPDH (5174; Cell Signaling Technology), p38 MAPK (9212; Cell Signaling Technology), phopho-p38 MAPK (4631; Cell Signaling Technology), phospho-IKKα/β (2697; Cell Signaling Technology), phospho-IRAK1 (S376) (PAB0497; Abnova), phospho-IRAK1 (T209) (A1074; AssaybioTech), phospho-ERK (4695; Cell Signaling Technology), Lck (2752; Cell Signaling Technology), phospho-Lck (Tyr505) (2751; Cell Signaling Technology), IRAK4 (4363; Cell Signaling Technology), phospho-IRAK4 (Thr345/Ser346) (7652; Cell Signaling Technology), Src (2102; Cell Signaling Technology), Phospho-Src (Tyr416) (2113; Cell Signaling Technology), BCL-2 (2870; Cell Signaling Technology) and Actin (4968; Cell Signaling Technology).

IRAK1 (pIRAK1T209) = IRAK1 (pIRAK1T209) (Homo sapiens, UniProt P51617)
Sequence of IRAK1 (pIRAK1T209) (P51617 whole entry): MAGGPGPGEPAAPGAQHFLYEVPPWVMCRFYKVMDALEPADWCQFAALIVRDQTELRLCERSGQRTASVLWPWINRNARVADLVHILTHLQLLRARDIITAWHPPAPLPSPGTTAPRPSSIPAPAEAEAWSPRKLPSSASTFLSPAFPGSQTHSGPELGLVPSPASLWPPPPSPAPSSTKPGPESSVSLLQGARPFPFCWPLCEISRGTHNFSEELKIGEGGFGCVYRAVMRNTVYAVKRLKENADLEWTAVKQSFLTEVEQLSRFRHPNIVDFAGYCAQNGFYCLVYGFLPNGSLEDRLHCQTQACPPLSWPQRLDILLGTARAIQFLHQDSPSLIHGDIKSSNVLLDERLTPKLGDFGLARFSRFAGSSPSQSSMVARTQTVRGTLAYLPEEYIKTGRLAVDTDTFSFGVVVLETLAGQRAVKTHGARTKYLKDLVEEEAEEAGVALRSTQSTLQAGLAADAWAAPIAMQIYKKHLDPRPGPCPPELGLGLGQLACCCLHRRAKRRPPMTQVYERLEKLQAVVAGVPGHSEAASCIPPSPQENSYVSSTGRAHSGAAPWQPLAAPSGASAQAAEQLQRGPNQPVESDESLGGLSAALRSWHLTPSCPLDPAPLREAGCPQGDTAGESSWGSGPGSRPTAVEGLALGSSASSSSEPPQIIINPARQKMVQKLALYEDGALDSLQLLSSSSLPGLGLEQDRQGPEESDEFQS
Method: as §1

TRAF6/NF-κB signaling = tested on: TRAF6/NF-κB signaling
Method: as §1

primary AML marrow cells = assay: Growth/viability of primary AML marrow cells; format: cell-based, human
Method: For in vitro growth assays, cell expansion in liquid culture was determined based on trypan blue exclusion using an automated cell counter (BioRad TC10). For experiments beyond 48 hrs, cells were replenished with fresh media and drug every second day. For primary patient marrow cells, cell were treated with a single inhibitor dose and counted 24 and 48 hours later.
AML patient samples were acquired following informed consent and under the direction of IRB approved protocols.

MDS/AML cell lines = assay: Colony formation in methylcellulose, MDS/AML cell lines; format: cell-based, human
Method: The effect of IRAK-Inh on leukemic progenitor function was evaluated in methylcellulose containing IRAK-Inh. […] As an alternative approach, MDS/AML cells were pre-treated with IRAK-Inh for 24 hours and then plated in methylcellulose.

AML patient cells = assay: Colony formation in methylcellulose, primary AML cells; format: cell-based, human
Description: We evaluated marrow cells from 7 MDS and 3 AML patient samples with various cytogenetic features to determine whether IRAK1 inhibition is also effective in primary patient cells (Table S1). […] Since MDS and AML stem/progenitor cells are clonal and the disease-propagating cells form colonies in methylcellulose, we also evaluated the effects of IRAK-Inh on colony formation.

MDSL cells = assay: MDSL xenograft, cells pre-treated in vitro, NSGS mice; format: in vivo
Method: Xenograftment of NOD/SCID-IL2Rγ(NSG) and NSG-hSCF/hGM-CSF/hIL3 (NSGS) MDSL cells (1×10^6-5×10^6) were injected into the tail veins of 8-week old sublethally irradiated ([…]) NSG or NSG animals engineered to express human SCF, GM-CSF, and IL3 (NSGS) as previously described (Wunderlich et al., 2010). Mice were monitored by performing complete blood counts (Drew Hemavet 950FS). Following red cell lysis, human MDSL cells were identified by hCD45-FITC staining. In vivo delivery of IRAK-Inh approach is adapted from previous reports (Yang et al., 2011): IRAK-Inh was diluted in DMSO (5 mM) and further dissolved in sterile phosphate buffered saline (PBS; pH 7.2). Animals were injected i.p. with 2.12 mg/kg IRAK-Inh 3× weekly.
To determine whether IRAK-Inh can delay human MDS-like disease in vivo, MDSL were pre-treated with IRAK-Inh (10 μM) for 24 hrs in vitro and subsequently injected intravenously (i.v.) into NSG (5×10^6 cells) and NSGS (1×10^6 cells) recipient mice (FIG. 4A). This approach permitted us to evaluate the cell autonomous effect of IRAK-Inh on MDS cell viability and engraftment without altering endogenous IRAK1 function in the mouse.
Moreover, we investigated whether combined IRAK1 and BCL2 inhibition could delay human MDS-like disease in vivo. MDSL cells were treated with IRAK-Inh (10 μM) and/or ABT-263 (0.1 μM) for 48 hrs in vitro and subsequently injected i.v. into NSGS mice (FIG. 4A).

IRAK1 = IRAK1 (Homo sapiens, UniProt P51617); conditions: Powers et al., 2006, cited from earlier work
Sequence of IRAK1 (P51617 whole entry, species assumed): as the sequence (P51617 whole entry) above

IRAK4 = IRAK4 (Homo sapiens, UniProt Q9NWZ3); conditions: read-out: IC50 IRAK4; Powers et al., 2006; cited from earlier work
Sequence of IRAK4 (Q9NWZ3 whole entry, species assumed): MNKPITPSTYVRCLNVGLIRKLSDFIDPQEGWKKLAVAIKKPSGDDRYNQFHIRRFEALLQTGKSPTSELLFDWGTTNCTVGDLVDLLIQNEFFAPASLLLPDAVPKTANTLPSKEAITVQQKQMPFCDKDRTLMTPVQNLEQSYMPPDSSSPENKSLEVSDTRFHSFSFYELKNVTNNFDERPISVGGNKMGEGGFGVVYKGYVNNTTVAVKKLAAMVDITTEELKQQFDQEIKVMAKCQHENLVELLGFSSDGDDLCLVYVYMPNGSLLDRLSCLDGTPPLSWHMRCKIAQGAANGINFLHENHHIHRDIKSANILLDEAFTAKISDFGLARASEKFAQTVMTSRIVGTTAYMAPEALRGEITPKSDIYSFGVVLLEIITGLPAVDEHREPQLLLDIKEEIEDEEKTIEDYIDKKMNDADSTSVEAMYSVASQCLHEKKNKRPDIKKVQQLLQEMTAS

pp60^Src = pp60^Src (Homo sapiens, UniProt P12931); conditions: read-out: IC50 pp60Src; Powers et al., 2006; cited from earlier work
Sequence of pp60^Src (P12931 whole entry): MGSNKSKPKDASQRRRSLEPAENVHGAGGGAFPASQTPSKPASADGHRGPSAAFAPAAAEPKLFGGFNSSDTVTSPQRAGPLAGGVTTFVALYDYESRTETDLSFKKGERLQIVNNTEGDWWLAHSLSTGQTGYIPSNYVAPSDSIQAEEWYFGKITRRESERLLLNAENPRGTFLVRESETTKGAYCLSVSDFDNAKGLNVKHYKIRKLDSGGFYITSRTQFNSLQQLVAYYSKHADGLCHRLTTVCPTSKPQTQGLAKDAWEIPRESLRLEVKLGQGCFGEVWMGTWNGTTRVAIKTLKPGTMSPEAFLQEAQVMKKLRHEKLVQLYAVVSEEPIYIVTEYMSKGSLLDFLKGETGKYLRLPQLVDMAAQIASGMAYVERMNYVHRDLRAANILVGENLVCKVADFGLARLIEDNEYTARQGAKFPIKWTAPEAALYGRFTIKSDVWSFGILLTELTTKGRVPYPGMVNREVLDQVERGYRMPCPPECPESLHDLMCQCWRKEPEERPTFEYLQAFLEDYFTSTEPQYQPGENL

Lck = Lck (Homo sapiens, UniProt P06239); conditions: read-out: IC50 Lck; Powers et al., 2006; cited from earlier work
Sequence of Lck (P06239 whole entry, species assumed): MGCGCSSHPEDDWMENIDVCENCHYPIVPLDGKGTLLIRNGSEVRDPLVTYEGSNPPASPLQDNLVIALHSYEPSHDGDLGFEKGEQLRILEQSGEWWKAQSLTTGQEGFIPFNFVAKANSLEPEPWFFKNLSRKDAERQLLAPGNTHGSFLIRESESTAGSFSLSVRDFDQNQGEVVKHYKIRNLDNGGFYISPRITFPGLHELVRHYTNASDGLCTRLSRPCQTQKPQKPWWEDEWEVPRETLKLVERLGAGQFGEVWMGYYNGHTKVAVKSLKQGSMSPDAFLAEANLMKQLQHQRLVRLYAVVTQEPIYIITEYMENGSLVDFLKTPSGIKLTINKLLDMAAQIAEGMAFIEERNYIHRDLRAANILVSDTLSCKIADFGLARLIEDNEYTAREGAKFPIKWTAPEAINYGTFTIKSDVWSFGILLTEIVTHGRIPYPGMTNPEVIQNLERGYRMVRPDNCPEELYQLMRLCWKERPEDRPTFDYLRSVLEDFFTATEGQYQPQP

O=C(Nc1nc2ccccc2n1CCN1CCOCC1)c1cccc([N+](=O)[O-])c1 [IRAK-Inh, N-(2-morpholinylethyl)-2-(3-nitrobenzoylamido)-benzimidazole]
BCL2 expression (BCL2): increased in several of the cell lines examined | phosphorylated IRAK1 reduced by (IRAK1 (pIRAK1T209); 10 μM, 24 hrs, cell lines and patient marrow cells): ~70% | phosphorylation and K63-linked ubiquitination of immunoprecipitated IRAK1 (IRAK1 (pIRAK1T209); THP1, 10 μM, 24 hrs): reduced phosphorylation and K63-linked ubiquitination | pIRAK1T209 inhibited by (IRAK1 (pIRAK1T209); cells with lentiviral IRAK1 or TRAF6 overexpression): ~50% | kinases with structural homology to IRAK1 targeted in cells (IRAK1 (pIRAK1T209); malignant myeloid cells, IRAK1, IRAK4, Src, Lck immunoblots): only IRAK1 is a target | p100/p52 processing (non-canonical NF-κB) (TRAF6/NF-κB signaling; 10 μM for 24 hrs): completely blocked | pIKKα/IKKβ (TRAF6/NF-κB signaling; 10 μM for 24 hrs, vector- and TRAF6-expressing cells): reduced pIKKα/IKKβ | polyubiquitinated TRAF6 (TRAF6/NF-κB signaling; THP1, 10 μM, 24 hrs): reduced polyubiquitinated TRAF6 | growth of AML marrow cells (primary AML marrow cells): continued to grow similar to control-treated cells | viability of primary AML marrow cells (primary AML marrow cells): only modestly reduced | colony formation, methylcellulose containing inhibitor (MDS/AML cell lines; all MDS/AML cells, continuous treatment): significantly fewer colonies | colony formation after transient exposure (MDS/AML cell lines; pre-treated 24 hr, 10 μM, then plated): significantly fewer colonies | AML progenitor function (AML patient cells): did not affect | leukemic progenitor function of AML patient cells (AML patient cells; IRAK-Inh 10 μM, ABT-263 0.1 μM): not sensitive | median survival (MDSL cells; MDSL pre-treated 10 μM 24 hrs, 1×10^6 cells i.v., control 29 days): 38 days | median survival (MDSL cells; MDSL treated in vitro with IRAK-Inh 10 μM and/or ABT-263 0.1 μM, DMSO 28 days): ~35 days | red blood cell numbers, hemoglobin, hematocrit and platelets (MDSL cells; mice transplanted with pre-treated MDSL cells): significantly improved | IC50 (IRAK1; read-out: IC50 IRAK1, FIG. 9A legend): 300 nM | IC50 (IRAK1; read-out: IC50 IRAK1 kinase activity, Wang et al., 2009): 750 nM | IC50 (IRAK4): 200 nM | IC50 (pp60^Src): > 10000 nM | IC50 (Lck): > 10000 nM

Reference: US9855273B2, “Combination therapy for MDS” (priority 2013, dated 2018)
